Results taken from ChEMBL document CHEMBL4265944, “Novel amide derivatives of 1,3-dimethyl-2,6-dioxopurin-7-yl-alkylcarboxylic acids as multifunctional TRPA1 antagonists and PDE4/7 inhibitors: A new approach for the treatment of pain” (Eur J Med Chem, 2018).
Activity calls are given as the source filed them. The calls are words filed in the database; no cut-off is given here.

Assays:
[1] = biological target: High affinity 3',5'-cyclic-AMP phosphodiesterase 7A (Homo sapiens, UniProt Q13946); test: Inhibition of recombinant human PDE7A using cAMP as substrate after 10 mins by PDE-Glo Phosphodiesterase Assay
Sequence of High affinity 3',5'-cyclic-AMP phosphodiesterase 7A (Q13946 whole entry): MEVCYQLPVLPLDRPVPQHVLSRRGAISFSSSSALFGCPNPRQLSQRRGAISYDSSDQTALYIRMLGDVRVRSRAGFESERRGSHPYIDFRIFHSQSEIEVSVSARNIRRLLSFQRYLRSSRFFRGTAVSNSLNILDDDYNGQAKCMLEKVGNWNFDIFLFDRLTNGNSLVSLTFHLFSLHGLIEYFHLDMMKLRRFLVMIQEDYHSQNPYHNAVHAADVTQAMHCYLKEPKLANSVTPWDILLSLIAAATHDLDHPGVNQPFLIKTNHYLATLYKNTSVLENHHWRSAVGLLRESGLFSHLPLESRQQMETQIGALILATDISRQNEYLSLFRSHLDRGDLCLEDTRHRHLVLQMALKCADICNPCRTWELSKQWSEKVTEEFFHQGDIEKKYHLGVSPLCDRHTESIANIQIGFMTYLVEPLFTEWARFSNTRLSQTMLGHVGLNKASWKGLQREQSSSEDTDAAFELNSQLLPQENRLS

[2] = biological target: Transient receptor potential cation channel subfamily A member 1 (Homo sapiens) (UniProt O75762); test: Antagonist activity at human TRPA1 expressed in HEK293 cells assessed as decrease in flufenamic acid-evoked increase in intracellular calcium level at 100 uM measured for 180 secs with 1 sec interval by Fluo4-AM dye-based fluorescence assay relative to control; assay type: cell-based
Sequence of Transient receptor potential cation channel subfamily A member 1 (Homo sapiens) (O75762 whole entry): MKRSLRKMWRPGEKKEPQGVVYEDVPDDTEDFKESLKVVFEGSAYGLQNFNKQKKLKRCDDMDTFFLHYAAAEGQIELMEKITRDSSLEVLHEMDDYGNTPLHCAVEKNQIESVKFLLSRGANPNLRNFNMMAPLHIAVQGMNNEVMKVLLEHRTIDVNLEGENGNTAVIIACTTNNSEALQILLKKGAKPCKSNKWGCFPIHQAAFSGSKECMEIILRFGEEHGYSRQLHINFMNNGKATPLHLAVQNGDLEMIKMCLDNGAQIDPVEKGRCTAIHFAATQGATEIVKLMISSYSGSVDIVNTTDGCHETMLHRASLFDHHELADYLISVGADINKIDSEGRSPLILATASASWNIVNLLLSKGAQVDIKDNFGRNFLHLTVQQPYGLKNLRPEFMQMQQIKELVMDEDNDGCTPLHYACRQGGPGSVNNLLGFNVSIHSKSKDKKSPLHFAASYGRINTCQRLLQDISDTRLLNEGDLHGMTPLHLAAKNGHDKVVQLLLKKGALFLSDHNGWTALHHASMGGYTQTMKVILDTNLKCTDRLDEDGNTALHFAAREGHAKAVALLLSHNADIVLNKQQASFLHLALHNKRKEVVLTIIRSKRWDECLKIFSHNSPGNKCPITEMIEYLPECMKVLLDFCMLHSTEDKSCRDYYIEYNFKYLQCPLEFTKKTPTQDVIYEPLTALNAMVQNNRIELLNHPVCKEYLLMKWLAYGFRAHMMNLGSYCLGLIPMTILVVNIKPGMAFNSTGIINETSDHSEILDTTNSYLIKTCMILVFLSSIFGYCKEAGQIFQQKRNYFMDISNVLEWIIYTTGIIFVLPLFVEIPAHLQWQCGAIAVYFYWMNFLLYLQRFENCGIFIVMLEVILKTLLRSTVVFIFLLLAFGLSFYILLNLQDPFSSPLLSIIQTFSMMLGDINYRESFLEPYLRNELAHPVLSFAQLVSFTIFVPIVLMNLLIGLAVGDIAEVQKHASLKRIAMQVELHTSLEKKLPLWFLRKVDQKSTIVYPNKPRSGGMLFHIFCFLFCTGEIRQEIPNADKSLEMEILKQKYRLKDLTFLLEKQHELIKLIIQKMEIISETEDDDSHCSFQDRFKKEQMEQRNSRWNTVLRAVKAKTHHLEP

[3] = biological target: 3',5'-cyclic-AMP phosphodiesterase 4B (Homo sapiens, UniProt Q07343); test: Inhibition of recombinant human PDE4B using cAMP as substrate after 10 mins by PDE-Glo Phosphodiesterase Assay
Sequence of 3',5'-cyclic-AMP phosphodiesterase 4B (Q07343 whole entry): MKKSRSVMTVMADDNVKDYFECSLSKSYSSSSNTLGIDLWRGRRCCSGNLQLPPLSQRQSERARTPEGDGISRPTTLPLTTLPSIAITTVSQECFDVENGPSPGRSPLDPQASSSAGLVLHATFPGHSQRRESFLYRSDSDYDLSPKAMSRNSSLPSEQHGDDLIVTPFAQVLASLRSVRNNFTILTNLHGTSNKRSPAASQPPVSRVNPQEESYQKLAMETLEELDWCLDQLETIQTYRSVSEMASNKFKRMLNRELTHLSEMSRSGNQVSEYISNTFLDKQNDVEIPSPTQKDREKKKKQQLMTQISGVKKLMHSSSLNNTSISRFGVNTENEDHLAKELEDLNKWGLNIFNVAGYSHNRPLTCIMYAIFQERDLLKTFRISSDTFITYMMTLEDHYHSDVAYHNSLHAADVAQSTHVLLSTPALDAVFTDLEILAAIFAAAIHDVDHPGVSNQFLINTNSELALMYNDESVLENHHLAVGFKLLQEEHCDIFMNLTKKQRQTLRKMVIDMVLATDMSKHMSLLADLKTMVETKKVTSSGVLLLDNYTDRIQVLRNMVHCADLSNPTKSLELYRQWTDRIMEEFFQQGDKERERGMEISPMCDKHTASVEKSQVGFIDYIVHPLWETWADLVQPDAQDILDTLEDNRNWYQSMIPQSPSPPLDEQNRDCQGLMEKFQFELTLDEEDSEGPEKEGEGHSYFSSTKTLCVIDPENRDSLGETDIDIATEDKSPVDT

[4] = system: Rattus norvegicus; test: Anti-inflammatory activity in Wistar rat assessed as inhibition of carrageenan-induced paw edema at 20 mg/kg, ip measured at 1 hr post dose relative to control; assay type: functional
[5] = system: Rattus norvegicus; test: Anti-inflammatory activity in Wistar rat assessed as inhibition of carrageenan-induced paw edema at 20 mg/kg, ip measured at 3 hrs post dose relative to control; assay type: functional
[6] = system: Rattus norvegicus; test: Anti-inflammatory activity in Wistar rat assessed as inhibition of carrageenan-induced paw edema at 20 mg/kg, ip measured at 2 hrs post dose relative to control; assay type: functional
[7] = system: Rattus norvegicus; test: Antiallodynic activity in Wistar rat assessed as reduction in oxaliplatin-induced neuropathic pain in early phase by measuring paw withdrawal force at 5 to 10 mg/kg, ip measured after 60 mins by Von Frey test; assay type: functional, organism-based
[8] = system: Rattus norvegicus; test: Antiallodynic activity in Wistar rat assessed as reduction in oxaliplatin-induced neuropathic pain in late phase by measuring paw withdrawal force at 5 to 10 mg/kg, ip measured after 60 mins by Von Frey test; assay type: functional, organism-based
[9] = Plasma concentration in Wistar rat model of LPS-induced inflammation at 50 mg/kg, ip measured at 1.5 hrs post dose by HPLC method; assay type: ADME, organism-based
[10] = system: Mus musculus; test: Antiinflammatory activity in formalin-induced nociception Swiss CD-1 mouse model assessed as time spent on licking or biting formalin injected right hind paw during […] phase at 2.5 mg/kg, ip measured during phase 2 (reference value: 83.63 +/- 12.98 sec); assay type: functional
[11] = system: Rattus norvegicus; test: Antiallodynic activity in Wistar rat assessed as reduction in oxaliplatin-induced neuropathic pain in late phase by measuring paw withdrawal force at 10 mg/kg, ip measured after 60 mins by Von Frey test; assay type: functional, organism-based
[12] = biological target: Transient receptor potential cation channel subfamily A member 1 (Homo sapiens) (UniProt O75762); test: Antagonist activity at human TRPA1 expressed in HEK293 cells assessed as decrease in flufenamic acid-evoked increase in intracellular calcium level at 10 uM measured for 180 secs with 1 sec interval by Fluo4-AM dye-based fluorescence assay relative to control; assay type: cell-based
[13] = system: Rattus norvegicus; test: Antiinflammatory activity in Wistar rat assessed as inhibition of LPS-induced TNF-alpha level at 50 mg/kg, ip measured at 1 to 2 hrs post dose by ELISA relative to control; assay type: functional
[14] = system: Mus musculus; test: Antiinflammatory activity in formalin-induced nociception Swiss CD-1 mouse model assessed as time spent on licking or biting formalin injected right hind paw during neurogenic phase at 10 mg/kg, ip measured during phase 1 (reference value: 33 +/- 1.45 sec); assay type: functional
[15] = biological target: Transient receptor potential cation channel subfamily A member 1 (Homo sapiens) (UniProt O75762); test: Antagonist activity at human TRPA1 expressed in HEK293 cells assessed as decrease in flufenamic acid-evoked increase in intracellular calcium level at 1 uM measured for 180 secs with 1 sec interval by Fluo4-AM dye-based fluorescence assay relative to control; assay type: cell-based
[16] = system: Mus musculus; test: Antiinflammatory activity in formalin-induced nociception ip dosed Swiss CD-1 mouse model assessed as time spent on licking or biting formalin injected right hind paw […] measured during phase 2; assay type: functional; conditions: Swiss CD-1, ip
[17] = system: Rattus norvegicus; test: Antiallodynic activity in Wistar rat assessed as reduction in oxaliplatin-induced neuropathic pain in late phase by measuring paw withdrawal latency time at 1 mg/kg, ip measured after 60 secs by cold plate test; assay type: functional, organism-based
[18] = system: Mus musculus; test: Antiinflammatory activity in formalin-induced nociception Swiss CD-1 mouse model assessed as time spent on licking or biting formalin injected right hind paw during […] phase at 10 mg/kg, ip measured during phase 2 (reference value: 83.63 +/- 12.98 sec); assay type: functional
[19] = Plasma concentration in Wistar rat model of LPS-induced inflammation at 50 mg/kg, ip measured at 2 hrs post dose by HPLC method; assay type: ADME, organism-based
[20] = system: Mus musculus; test: Potency index, ratio of ED50 for HC-030031 to test compound ED50 for formalin-induced nociception ip dosed Swiss CD-1 mouse model assessed as time spent on licking or biting formalin injected right hind paw […] measured during phase 2; assay type: functional
[21] = system: Rattus norvegicus; test: Antiallodynic activity in Wistar rat assessed as reduction in oxaliplatin-induced neuropathic pain in early phase by measuring paw withdrawal force at 10 mg/kg, ip measured after 60 mins by Von Frey test; assay type: functional, organism-based
[22] = Plasma concentration in Wistar rat model of LPS-induced inflammation at 50 mg/kg, ip measured at 1 hr post dose by HPLC method; assay type: ADME, organism-based
[23] = system: Mus musculus; test: Antiinflammatory activity in formalin-induced nociception Swiss CD-1 mouse model assessed as time spent on licking or biting formalin injected right hind paw during neurogenic phase at 5 mg/kg, ip measured during phase 1 (reference value: 33 +/- 1.45 sec); assay type: functional
[24] = system: Mus musculus; test: Antiinflammatory activity in formalin-induced nociception Swiss CD-1 mouse model assessed as time spent on licking or biting formalin injected right hind paw during neurogenic phase at 2.5 mg/kg, ip measured during phase 1 (reference value: 33 +/- 1.45 sec); assay type: functional
[25] = system: Mus musculus; test: Antiinflammatory activity in formalin-induced nociception Swiss CD-1 mouse model assessed as time spent on licking or biting formalin injected right hind paw […] at 5 mg/kg, ip measured during phase 2 (reference value: 83.63 +/- 12.98 sec); assay type: functional

`COc1nc2c(c(=O)n(C)c(=O)n2C)n1CCCC(=O)Nc1ccc(C(C)C)cc1` gave an IC50 [1] greater than 200 µM, an inhibition [2] of 18% and an IC50 [3] greater than 200 µM.
Work on `CCOc1nc2c(c(=O)n(C)c(=O)n2C)n1CCCC(=O)Nc1ccc(C(C)C)cc1` yielded an IC50 [1] of 96.3 µM, an inhibition [2] of 10% and an IC50 [3] of 32.3 µM.
Compound `CC(C(=O)O)c1cccc(C(=O)c2ccccc2)c1` (configuration not stated) [KETOPROFEN] has an inhibition in vivo at 20 mg/kg [4] of 23.3%, an inhibition in vivo at 20 mg/kg [5] of 66% and an inhibition in vivo at 20 mg/kg [6] of 54.2%.
For `COc1nc2c(c(=O)n(C)c(=O)n2C)n1CC(=O)Nc1cccc(Cl)c1`, the IC50 [1] was greater than 200 µM, the inhibition [2] was 2% and the IC50 [3] was greater than 200 µM.
`COc1nc2c(c(=O)n(C)c(=O)n2C)n1CCCC(=O)NCc1ccccc1Cl` gave an IC50 [1] greater than 200 µM, an inhibition [2] of 16% and an IC50 [3] greater than 200 µM.
`COc1nc2c(c(=O)n(C)c(=O)n2C)n1CC(=O)NCc1ccccc1Cl` showed an IC50 [1] greater than 200 µM, an inhibition [2] of 3% and an IC50 [3] greater than 200 µM.
Work on `CCCOc1nc2c(c(=O)n(C)c(=O)n2C)n1CCCC(=O)Nc1ccc(C(C)CC)cc1` (configuration not stated) yielded an IC50 [1] of 9.06 µM, an inhibition [2] of 5% and an IC50 [3] of 16.8 µM.
Work on `COc1nc2c(c(=O)n(C)c(=O)n2C)n1CCCC(=O)Nc1ccc(Cl)cc1` yielded an IC50 [1] greater than 200 µM, an inhibition [2] of 15% and an IC50 [3] greater than 200 µM.
In the case of `CC(C)C[C@H](CN)CC(=O)O`, the Activity [7] is reported as “Active” and the Activity [8] is reported as “Active”.
For `CCOc1nc2c(c(=O)n(C)c(=O)n2C)n1CC(=O)Nc1ccc(C(C)(C)C)cc1`, the concentration at 1.5 h [9] was 2.59 µM, the Time [10] was 46 s and the Activity [11] was “Active”. It also gave an inhibition [12] of 47%, an IC50 [1] greater than 200 µM and an inhibition in vivo at 20 mg/kg [4] of 60.5%. For the same compound, the inhibition [13] was “inactive”, the Time [14] was 32.17 s and the inhibition [15] was 10%. The ED50 [16] was 2.57 mg/kg, the Activity [17] was “Active” and the Time [18] was 9.67 s. The concentration at 2 h [19] was 2.25 µM, the “Ratio ED50” value [20] was 10 - 13 and the Activity [21] was “Active”. For the same compound, the inhibition [2] was 59%, the concentration at 1 h [22] was 3.75 µM and the IC50 [3] was greater than 200 µM. The inhibition in vivo at 20 mg/kg [5] was 50.1%, the Time [23] was 30.83 s and the Time [24] was 32 s. The Time [25] was 16.33 s and the inhibition in vivo at 20 mg/kg [6] was 54.3%.
With `CCOc1nc2c(c(=O)n(C)c(=O)n2C)n1CC(=O)NCc1ccccc1Cl` the IC50 [1] was greater than 200 µM, the inhibition [2] was 7% and the IC50 [3] was greater than 200 µM.
